The target in experiment [1] is T1, recombinant human SYK360-635 (Homo sapiens, UniProt P43405).
T1 construct: made in house
Kind of experiment: Determination of IC50 of Spleen Tyrosine Kinase (SYK) inhibition, 33P ATP filtration assay. Type of experiment: biochemical. The note with it: SYK aa 360-635 0.5 nM; ATP 20 μM, peptide 5 μM, 0.1% BSA; read-out: SYK_ENZYME_FILTRATION/v1, BSA.

Experiment [2] deals with T2, JAK3: Recombinant human kinase domain (Homo sapiens, UniProt P52333).
T2 construct: JAK3: Recombinant human kinase domain from Millipore (Cat #14-629) or prepared; purchased Millipore 14-629
T2 sequence (P52333 822-1111 limits assumed): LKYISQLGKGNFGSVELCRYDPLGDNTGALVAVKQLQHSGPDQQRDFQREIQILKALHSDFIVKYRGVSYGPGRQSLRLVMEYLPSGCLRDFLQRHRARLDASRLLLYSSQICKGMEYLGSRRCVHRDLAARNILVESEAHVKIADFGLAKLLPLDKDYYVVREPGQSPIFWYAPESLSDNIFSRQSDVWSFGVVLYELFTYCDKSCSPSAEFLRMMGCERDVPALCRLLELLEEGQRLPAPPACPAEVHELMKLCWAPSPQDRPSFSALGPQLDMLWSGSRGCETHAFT
Kind of experiment: Determination of IC50 of Janus Kinase (JAK) inhibition, radioactive end-point 33P-ATP assay, JAK3. The format is biochemical. The note with it: ATP 1.5 uM, peptide 50 uM, 20 minutes, read-out: JAK3-INHIB-DR/v1~NO ADDITIVE~Enzyme_Conc = 100.
Procedure: Determination of IC50 of Janus Kinase (JAK) Inhibition:
Assay conditions used are described below: • Assay Buffer: JAK Kinase Buffer: 50 mM Hepes [pH 7.2], 10 mM MgCl2, 1 mM DTT, 1 mg/ml BSA. The assay was carried out in this buffer. • Assay Format The kinase activity of all three JAK kinases was measured using a radioactive, end-point assay and with trace amounts of ^33P-ATP. The assays were carried out in 96-well polypropylene plates. Experimental Method:
All concentrations were final in the reaction mixture and all incubations were carried at room temperature. […] Final concentration of DMSO in the reaction was 10%. • 2) Compounds were preincubated with enzyme (0.5 nM JAK3 (commercially available), 0.2 nM JAK3 (prepared), 1 nM JAK2, 5 nM JAK1) for 10 minutes. • 3) Reactions were initiated by the addition of a cocktail of the two substrates (ATP and peptide premixed in the JAK Kinase Buffer). […] JAK1 assay was carried out at an ATP concentration of 10 uM and a peptide concentration of 50 uM. • 4) The duration of the assay for JAK2 and JAK3 is 20 minutes. JAK1 assay was carried out for 40 minutes. With all three enzymes, reactions were terminated by the addition of 0.5M EDTA to a final concentration of 100 mM. • 5) 25 ul of terminated reactions were transferred to 150 ul of a 7.5% (v/v) slurry of streptavidin-coated sepharose beads in MgCl2- and CaCl2-free 1× Phosphate Buffered Saline containing 50 mM of EDTA in 96-well, 1.2 um MultiScreen-BV filter plates. • 6) After a 30-minute incubation, the beads were washed under vacuum with the following buffers: • a. 3 to 4 washes with 200 ul of 2M NaCl. • b. 3 to 4 washes with 200 ul of 2M NaCl plus 1% (v/v) phosphoric acid. • c. 1 wash with water. • 7) Washed plates were dried in a 60° C. oven for between 1 to 2 hours. • 8) 70 ul of Microscint 20 scintillation fluid was added to each well of filter plates and after at least 30 minutes of incubation, radioactive counts were measured in a Perkinelmer microplate scintillation counter.

As for `Cn1nc(-c2cnc3[nH]cc(C(=O)NCC(C)(C)C)c3n2)c2ccc(F)cc21` [Example I-115, 2-(6-Fluoro-1-methyl-1H-indazol-3-yl)-5H-pyrrolo[2,3-b]pyrazine-7-carboxylic acid (2,2-dimethyl-propyl)-amide], the IC50 is 19.3 nM in experiment [1] and 8.23 nM in experiment [2].

With `CC(NC(=O)c1c[nH]c2ncc(-c3nn(C)c4cc(F)ccc34)nc12)c1cocn1` (centres unmarked) [Example I-52, 2-(6-Fluoro-1-methyl-1H-indazol-3-yl)-5H-pyrrolo[2,3-b]pyrazine-7-carboxylic acid (1-oxazol-4-yl-ethyl)-amide], the IC50 in experiment [1] was 19.4 nM; in experiment [2] it was 8.87 nM.

Consider `CC(C)CNC(=O)c1c[nH]c2ncc(-c3nn(C)c4cc(F)ccc34)nc12` [Example I-116, 2-(6-Fluoro-1-methyl-1H-indazol-3-yl)-5H-pyrrolo[2,3-b]pyrazine-7-carboxylic acid isobutyl-amide], for which the IC50 was 17.6 nM in experiment [1] and 9.44 nM in experiment [2].

With `CC(NC(=O)c1c[nH]c2ncc(-c3nn(C)c4cc(F)ccc34)nc12)C(O)C1CCOCC1` (single isomer, unassigned) [Example I-204, 2-(6-Fluoro-1-methyl-1H-indazol-3-yl)-5H-pyrrolo[2,3-b]pyrazine-7-carboxylic acid [trans-2-hydroxy-1-methyl-2-(tetrahydro-pyran-4-yl)-ethyl]-amide], the IC50 in experiment [1] turned out to be 205 nM; in experiment [2], 217 nM.

As to `Cn1nc(-c2cnc3[nH]cc(C(=O)N[C@H]4CC[C@H](O)CC4)c3n2)c2ccc(Cl)cc21` [Example I-144, 2-(6-Chloro-1-methyl-1H-indazol-3-yl)-5H-pyrrolo[2,3-b]pyrazine-7-carboxylic acid (trans-4-hydroxy-cyclohexyl)-amide], the IC50 in experiment [1] amounted to 37.1 nM; in experiment [2] it was 13.1 nM.

In the case of `CC(NC(=O)c1c[nH]c2ncc(-c3nn(C)c4cc(Cl)ccc34)nc12)C1CCCO1` (centres unmarked) [Example I-154, 2-(6-Chloro-1-methyl-1H-indazol-3-yl)-5H-pyrrolo[2,3-b]pyrazine-7-carboxylic acid [1-(tetrahydro-furan-2-yl)-ethyl]-amide], the results for the IC50 in experiment [1] and in experiment [2] were 47.3 nM and 4.95 nM, respectively.

Turning to `COC[C@H](C)NC(=O)c1c[nH]c2ncc(-c3nc(Cl)n4cc(F)ccc34)nc12` [Example I-39, 2-(3-Chloro-6-fluoro-imidazo[1,5-a]pyridin-1-yl)-5H-pyrrolo[2,3-b]pyrazine-7-carboxylic acid ((S)-2-methoxy-1-methyl-ethyl)-amide], the results for the IC50 in experiment [1] and in experiment [2] were 243 nM and 5.81 nM, respectively.

Regarding `COC[C@H](C)NC(=O)c1c[nH]c2ncc(-n3cnc4cc(Cl)ccc43)nc12` [Example I-223, 2-(5-Chloro-benzoimidazol-1-yl)-5H-pyrrolo[2,3-b]pyrazine-7-carboxylic acid ((S)-2-methoxy-1-methyl-ethyl)-amide], the IC50 in experiment [1] was 416 nM; in experiment [2] it was 189 nM.

On to `COC[C@H](C)NC(=O)c1c[nH]c2ncc(-c3nn(Cc4cccnc4)c4cc(F)ccc34)nc12` [Example I-241, 2-(6-Fluoro-1-pyridin-3-ylmethyl-1H-indazol-3-yl)-5H-pyrrolo[2,3-b]pyrazine-7-carboxylic acid ((S)-2-methoxy-1-methyl-ethyl)-amide], for which the IC50 turned out to be 20.3 nM in experiment [1] and 0.41 nM in experiment [2].

Regarding `CC(Cc1ccccn1)NC(=O)c1c[nH]c2ncc(-c3nn(CCN4CCCC4)c4cc(F)ccc34)nc12` (centres unmarked) [Example I-250, 2-[6-Fluoro-1-(2-pyrrolidin-1-yl-ethyl)-1H-indazol-3-yl]-5H-pyrrolo[2,3-b]pyrazine-7-carboxylic acid (1-methyl-2-pyridin-2-yl-ethyl)-amide], the IC50 in experiment [1] is 8930 nM; in experiment [2] it was over 1000 nM.

As to `CC(NC(=O)c1c[nH]c2ncc(-c3nn(C)c4cc(Cl)ccc34)nc12)c1ncco1` (centres unmarked) [Example I-48, 2-(6-Chloro-1-methyl-1H-indazol-3-yl)-5H-pyrrolo[2,3-b]pyrazine-7-carboxylic acid (1-oxazol-2-yl-ethyl)-amide], the IC50 in experiment [1] was found to be 22.1 nM; in experiment [2] it was 4.91 nM.

With `CC(C)NC(=O)c1c[nH]c2ncc(-c3nn(Cc4nccn4C)c4cc(Cl)ccc34)nc12` [Example I-311, 2-[6-Chloro-1-(1-methyl-1H-imidazol-2-ylmethyl)-1H-indazol-3-yl]-5H-pyrrolo[2,3-b]pyrazine-7-carboxylic acid isopropylamide], the IC50 in experiment [1] stood at 10.9 nM; in experiment [2] it was 4.46 nM.

For the compound `CC(CCCC(C)(C)O)NC(=O)c1c[nH]c2ncc(-c3nn(C)c4cc(Cl)ccc34)nc12` (centres unmarked) [Example I-163, 2-(6-Chloro-1-methyl-1H-indazol-3-yl)-5H-pyrrolo[2,3-b]pyrazine-7-carboxylic acid (5-hydroxy-1,5-dimethyl-hexyl)-amide], the IC50 in experiment [1] stood at 356 nM; in experiment [2], 80.7 nM.

With `C[C@@H](NC(=O)c1c[nH]c2ncc(-c3nn(C)c4c(F)c(F)ccc34)nc12)C(=O)N1CC(C#N)C1` [Example I-86, 2-(6,7-Difluoro-1-methyl-1H-indazol-3-yl)-5H-pyrrolo[2,3-b]pyrazine-7-carboxylic acid [(R)-2-(3-cyano-azetidin-1-yl)-1-methyl-2-oxo-ethyl]-amide], the IC50 in experiment [1] is 109 nM; in experiment [2], 0.745 nM.

On to `Cn1nc(-c2cnc3[nH]cc(C(=O)N[C@H]4CC[C@@H](CC#N)C4)c3n2)c2ccc(F)cc21` (relative stereo) [Example I-57, 2-(6-Fluoro-1-methyl-1H-indazol-3-yl)-5H-pyrrolo[2,3-b]pyrazine-7-carboxylic acid (cis-3-cyanomethyl-cyclopentyl)-amide], for which the IC50 was 44.4 nM in experiment [1] and 10.6 nM in experiment [2].

Consider `CC(C)NC(=O)c1c[nH]c2ncc(-c3nn(CCN(C)C)c4cc(Cl)cc(F)c34)nc12` [Example I-128, 2-[6-Chloro-1-(2-dimethylamino-ethyl)-4-fluoro-1H-indazol-3-yl]-5H-pyrrolo[2,3-b]pyrazine-7-carboxylic acid isopropylamide], for which the values for the IC50 in experiment [1] and in experiment [2] were 186 nM and 13.3 nM, respectively.

With `COC[C@H](CCS(C)(=O)=O)NC(=O)c1c[nH]c2ncc(-c3nn(C)c4cc(F)ccc34)nc12` [Example I-192, 2-(6-Fluoro-1-methyl-1H-indazol-3-yl)-5H-pyrrolo[2,3-b]pyrazine-7-carboxylic acid ((S)-3-methanesulfonyl-1-methoxymethyl-propyl)-amide], the IC50 in experiment [1] is 135 nM; in experiment [2] it was 1.88 nM.

As for `Cn1nc(-c2cnc3[nH]cc(C(=O)NCC(C)(C)CO)c3n2)c2ccc(F)cc21` [Example I-114, 2-(6-Fluoro-1-methyl-1H-indazol-3-yl)-5H-pyrrolo[2,3-b]pyrazine-7-carboxylic acid (3-hydroxy-2,2-dimethyl-propyl)-amide], the IC50 in experiment [1] came to 12.1 nM; in experiment [2], 12.8 nM.

Consider `C[C@@H](NC(=O)c1c[nH]c2ncc(-c3n[nH]c4cc(Cl)ccc34)nc12)C(=O)N1CC(C#N)C1` [Example I-23, 2-(6-Chloro-1H-indazol-3-yl)-5H-pyrrolo[2,3-b]pyrazine-7-carboxylic acid [(R)-2-(3-cyano-azetidin-1-yl)-1-methyl-2-oxo-ethyl]-amide], for which, in experiment [2], the IC50 turned out to be 0.59 nM.

With `CC[C@H](COC)NC(=O)c1c[nH]c2ncc(-c3nn(C)c4cc(Cl)ccc34)nc12` [Example I-162, 2-(6-Chloro-1-methyl-1H-indazol-3-yl)-5H-pyrrolo[2,3-b]pyrazine-7-carboxylic acid ((R)-1-methoxymethyl-propyl)-amide], the IC50 in experiment [2] is 11.3 nM.

Turning to `C[C@@H](COCC#N)NC(=O)c1c[nH]c2ncc(-c3nn(C)c4cc(F)ccc34)nc12` [Example I-219, 2-(6-Fluoro-1-methyl-1H-indazol-3-yl)-5H-pyrrolo[2,3-b]pyrazine-7-carboxylic acid ((S)-2-cyanomethoxy-1-methyl-ethyl)-amide], the IC50 in experiment [2] stood at 3.04 nM.

As to `Cc1ccc2c(-c3cnc4[nH]cc(C(=O)N[C@H](C)C(=O)N5CC(C#N)C5)c4n3)nn(C)c2n1` [Example I-89, 2-(1,6-Dimethyl-1H-pyrazolo[3,4-b]pyridin-3-yl)-5H-pyrrolo[2,3-b]pyrazine-7-carboxylic acid [(R)-2-(3-cyano-azetidin-1-yl)-1-methyl-2-oxo-ethyl]-amide], in experiment [2], the IC50 was found to be 1.09 nM.

Take `C[C@@H](NC(=O)c1c[nH]c2ncc(-c3nn(CCCO)c4cc(Cl)ccc34)nc12)C(=O)N1CC(C#N)C1` [Example I-96, 2-[6-Chloro-1-(3-hydroxy-propyl)-1H-indazol-3-yl]-5H-pyrrolo[2,3-b]pyrazine-7-carboxylic acid [(R)-2-(3-cyano-azetidin-1-yl)-1-methyl-2-oxo-ethyl]-amide]: the IC50 in experiment [2] was determined as 5.39 nM.

`Cc1ccc2c(-c3cnc4[nH]cc(C(=O)N[C@H](C)C(=O)N5CC(C#N)C5)c4n3)nn(C)c2c1` [Example I-82]: the IC50 in experiment [2] worked out at 1.36 nM.

Turning to `COC[C@H](C)NC(=O)c1c[nH]c2ncc(-c3nn(CCN(C)C)c4cc(F)ccc34)nc12` [Example I-239, 2-[1-(2-Dimethylamino-ethyl)-6-fluoro-1H-indazol-3-yl]-5H-pyrrolo[2,3-b]pyrazine-7-carboxylic acid ((S)-2-methoxy-1-methyl-ethyl)-amide], the IC50 in experiment [2] amounted to 1.83 nM.

Regarding `Cc1nc(-c2cnc3[nH]cc(C(=O)N[C@H](C)C(=O)N4CC(C#N)C4)c3n2)c2ccc(F)cn12` [Example I-34, 2-(6-Fluoro-3-methyl-imidazo[1,5-a]pyridin-1-yl)-5H-pyrrolo[2,3-b]pyrazine-7-carboxylic acid [(R)-2-(3-cyano-azetidin-1-yl)-1-methyl-2-oxo-ethyl]-amide], the IC50 in experiment [2] worked out at 1.27 nM.

These data come from patent US8658646B2, “Pyrrolopyrazine kinase inhibitors” (Hoffmann-LaRoche Inc., priority 2011, dated 2014).
